The values that follow come from publication PMC10790229 (Journal of medicinal chemistry, 2023).

Structures are written as SMILES.

A short description of data set [1]: Cytotoxicity in uninfected MT-4 cells. To be noted: human. Format: cell-based.
In data set [2] the target is hexameric HIV-1 CA NL4.3 protein (Human immunodeficiency virus type 1, UniProt P12493). The experiment in a line: SPR binding to disulfide-stabilized hexameric HIV-1 CA. To be noted: CA hexamer.
For the next data set, the system named is HIV-1. To be noted: read-out: EC50 antiviral activity; MT-4 cells; cited from earlier work.
The next data set can be described thus: in vitro. To be noted: human, microsomes.
The subject of another data set is HIV-1 IIIB. The experiment in a line: Anti-HIV-1 activity in MT-4 cells. Format: cell-based. To be noted: HIV-1 IIIB, MT-4 cells.
In the next data set the test system is HIV-2 ROD. The data set is described as follows: Anti-HIV-2 activity in MT-4 cells. Format: cell-based.
Data set [3] deals with monomeric HIV-1 CA NL4.3 protein (Human immunodeficiency virus type 1 group M subtype B, UniProt P12493). The experiment in a line: SPR binding to monomeric HIV-1 CA. The note with it: SPR, CA monomer. In general terms: Surface plasmon resonance follows binding to a sensor surface in real time, without labels.
Data set [4] can be described thus: Metabolic stability in human liver microsomes.

As a reminder, the CC50 is the concentration that lowers cell viability or growth by half. By EC50 is commonly meant the concentration needed to bring the measured effect to its halfway point. In general, CLint scaled refers to the rate of metabolic loss divided by the concentration. A high value points to faster metabolism. As to `COc1ccc(N(C)C(=O)[C@H](Cc2ccccc2)NC(=O)Cc2c(C)[nH]c3ccccc23)cc1` [PF74, reference compound], the 50% cytotoxic concentration (CC50) in data set [1] was > 294 µM. Moreover, the “Residence Time Hexamer” value in data set [2] worked out at 0.463 min. Further, the concentration for a half-maximal effect (EC50) in the data set with HIV-1 was 0.87 µM; in the data set with HIV-2 ROD (Human immunodeficiency virus 2, MT4, read-out: EC50 ROD) it was 3.78 ± 0.38 µM. This compound returned an intrinsic clearance (CLint scaled) at 1 h, 1 µM in “in vitro” of 1900 mL/min/kg. In the data set on HIV-1 IIIB, the “SI IIIB (CC50/EC50)” value is on record as >367.65. Besides, the “SI ROD (CC50/EC50)” value in the data set with HIV-2 ROD (HIV-2 ROD, MT-4 cells) is reported as >77.64. In addition, in data set [3], the “Residence Time Monomer” value was 0.011 min.
What is called share remaining is the share of the starting amount still present when the sample was taken. Low readings indicate more turnover, high ones less turnover. `C[C@]12CC[C@H]3[C@@H](CCC4=CC(=O)CC[C@@]43C)[C@@H]1CC[C@@H]2O` [Testosterone, testosterone]: the share remaining at 1 h, 1 µM in data set [4] was 95.8%.
